The text below walks through data of patent US12303511B2 (priority 2018, dated 2025).

The test system of test [1] is Gpr139−/− mice. Nature of the test: Conditioned place preference paradigm. The test is classed as in vivo. As to conditions: Gpr139−/− mice vs wild-type.
In test [2] the test system is transgenic C. elegans (tgMOR) that express mammalian MOR. As to conditions: in vivo.
In test [3] the test system is Gpr139−/− mice. As to conditions: Gpr139−/− mice vs wild-type, multiple drug doses.

As to `CN1CC[C@]23c4c5ccc(O)c4O[C@H]2[C@@H](O)C=C[C@H]3[C@H]1C5` [morphine], the rewarding effects result in the test with Gpr139−/− mice [1] is recorded as “substantially augmented responses”. Moreover, the “time to maximum paralysis and recovery” value in test [2] is “reached maximum paralysis and recovered more quickly”. Also, in the test with Gpr139−/− mice [3], the “analgesia, maximal response and duration of effect” value is given as “significantly increased morphine analgesia”.
